Measured values reported in US4017607A.
Converted amounts (≈) assume the structure as drawn. Read-outs that look alike come from different tables or passages of the source.

How the values were obtained:
[1] = tested on: Staphylococcus aureus 209P; assay: Minimum inhibitory concentration, serial dilution method, Brain Heart Infusion broth; format: cell-based; conditions: read-out: Minimum Inhibitory Concentration
[2] = tested on: Staphylococcus aureus Terajima; assay: Minimum inhibitory concentration, serial dilution method; format: cell-based; conditions: read-out: Minimum Inhibitory Concentration
[3] = tested on: Staphylococcus aureus Smith; assay: as above; format: cell-based; conditions: read-out: Minimum Inhibitory Concentration
[4] = tested on: Staphylococcus albus 1200A; assay: as above; format: cell-based; conditions: read-out: Minimum Inhibitory Concentration
[5] = tested on: Streptococcus faecalis ATCC 8043; assay: as above; format: cell-based; conditions: Enterococcus faecalis, read-out: Minimum Inhibitory Concentration
[6] = tested on: Streptococcus hemolyticus Cook; assay: as above; format: cell-based; conditions: Streptococcus pyogenes; Streptococcus hemolyticus Cook; 24 hours, 37° C; read-out: Minimum Inhibitory Concentration
[7] = tested on: Streptococcus hemolyticus D-90; assay: as above; format: cell-based; conditions: Streptococcus pyogenes, read-out: Minimum Inhibitory Concentration
[8] = tested on: Streptococcus pyogenes D-58; assay: as above; format: cell-based; conditions: D58; Streptococcus pyogenes D-58; 24 hours, 37° C; read-out: Minimum Inhibitory Concentration
[9] = tested on: Diplococcus pneumoniae Type I; assay: as above; format: cell-based; conditions: Streptococcus pneumoniae; Diplococcus pneumoniae Type I; 24 hours, 37° C; read-out: Minimum Inhibitory Concentration
[10] = tested on: Diplococcus pneumoniae Type III; assay: as above; format: cell-based; conditions: Streptococcus pneumoniae; Diplococcus pneumoniae Type III; 24 hours, 37° C; read-out: Minimum Inhibitory Concentration
[11] = tested on: Bacillus subtilis PCI 219; assay: as above; format: cell-based; conditions: PCI219; Bacillus subtilis PCI 219; 24 hours, 37° C; read-out: Minimum Inhibitory Concentration
[12] = tested on: Bacillus subtilis ATCC 6633; assay: as above; format: cell-based; conditions: read-out: Minimum Inhibitory Concentration
[13] = tested on: Bacillus anthracis No. 119; assay: microbe, parasite or virus in culture; format: cell-based; conditions: NO.119, 24 h, read-out: Minimum Inhibitory Concentration
[14] = tested on: Corynebacterium diphtheriae Type gravis; assay: Minimum inhibitory concentration, serial dilution method; format: cell-based; conditions: Corynebacterium diphtheriae Type gravis; 24 hours, 37° C; read-out: Minimum Inhibitory Concentration
[15] = tested on: Corynebacterium diphtheriae Type intermedius; assay: as above; format: cell-based; conditions: Corynebacterium diphtheriae Type intermedius; 24 hours, 37° C; read-out: Minimum Inhibitory Concentration
[16] = tested on: Sarcina lutea; assay: as above; format: cell-based; conditions: Micrococcus luteus; Sarcina lutea; 24 hours, 37° C; read-out: Minimum Inhibitory Concentration
[17] = tested on: Staphylococcus aureus 209P; conditions: 7th day, 10 mice per group
[18] = tested on: gram-negative and gram-positive bacteria; assay: Antibacterial activity (in words); format: cell-based
[19] = Staphylococcus aureus 209P, 24 hours, 37° C
[20] = Staphylococcus aureus Terajima, 24 hours, 37° C
[21] = Staphylococcus aureus Smith, 24 hours, 37° C
[22] = Staphylococcus albus 1200A, 24 hours, 37° C
[23] = ATCC8043, Streptococcus faecalis ATCC 8043, 24 hours, 37° C
[24] = D90, Streptococcus hemolyticus D-90, 24 hours, 37° C
[25] = ATCC6633, Bacillus subtilis ATCC 6633, 24 hours, 37° C
[26] = Staphylococcus aureus, 209P, 24 h
[27] = Bacillus subtilis, ATCC6633, 24 h

SMILES	MIC [1, 19]	MIC [2, 20]	MIC [3, 21]	MIC [4, 22]	MIC [5, 23]	MIC [6]	MIC [7, 24]	MIC [8]	MIC [9]	MIC [10]	MIC [11]	MIC [12, 25]	MIC [13]	MIC [14]	MIC [15]	MIC [16]	Rate of surviving mice in each group of mice ([17]; 100 mg/kg oral)	Rate of surviving mice in each group of mice ([17]; 200 mg/kg oral)	MIC [1, 26]	MIC [12, 27]	further results
CCC(=O)OC1CC(=O)OC(C)CC=CC=CC(OC(C)=O)C(C)CC(CC=O)C(OC2OC(C)C(OC3CC(C)(OC(=O)CC)C(OC(=O)CC)C(C)O3)C(N(C)C)C2O)C1OC (stereo not shown) [Compound No. 6]	1.56 µg/mL (≈ 1.71 µM)	3.12 µg/mL (≈ 3.42 µM)	0.39 µg/mL (≈ 0.428 µM)	1.56 µg/mL (≈ 1.71 µM)	0.78 µg/mL (≈ 0.855 µM)	0.19 µg/mL (≈ 0.208 µM)	0.78 µg/mL (≈ 0.855 µM)	0.19 µg/mL (≈ 0.208 µM)	0.09 µg/mL (≈ 0.0987 µM)	0.09 µg/mL (≈ 0.0987 µM)	0.78 µg/mL (≈ 0.855 µM)	1.56 µg/mL (≈ 1.71 µM)	0.78 µg/mL (≈ 0.855 µM)	0.19 µg/mL (≈ 0.208 µM)	0.19 µg/mL (≈ 0.208 µM)	0.09 µg/mL (≈ 0.0987 µM)	6/10	10/10			
CCC(=O)OC1CC(=O)OC(C)CC=CC=CC(OC(C)=O)C(C)CC(CC=O)C(OC2OC(C)C(OC3CC(C)(O)C(OC(=O)CC)C(C)O3)C(N(C)C)C2O)C1OC (stereo not shown) [9-mono-acetyl SF-837 substance, reference compound]			0.78 µg/mL (≈ 0.911 µM)	0.78 µg/mL (≈ 0.911 µM)		0.39 µg/mL (≈ 0.456 µM)		0.39 µg/mL (≈ 0.456 µM)	0.04 µg/mL (≈ 0.0467 µM)	0.04 µg/mL (≈ 0.0467 µM)	0.78 µg/mL (≈ 0.911 µM)		1.56 µg/mL (≈ 1.82 µM)	0.19 µg/mL (≈ 0.222 µM)	0.19 µg/mL (≈ 0.222 µM)	0.09 µg/mL (≈ 0.105 µM)	5/10	8/10	1.56 µg/mL (≈ 1.82 µM)	1.56 µg/mL (≈ 1.82 µM)	MIC ([2]; Staphylococcus aureus, 24 h): 1.56 µg/mL (≈ 1.82 µM); MIC ([5]; ATCC8043, 24 h): 1.56 µg/mL (≈ 1.82 µM); MIC ([7]; D90, 24 h): 1.56 µg/mL (≈ 1.82 µM)
CCC(=O)OC=CC1CC(C)C(OC(C)=O)C=CC=CCC(C)OC(=O)CC(OC(=O)CC)C(OC)C1OC1OC(C)C(OC2CC(C)(OC(=O)CC)C(OC(=O)CC)C(C)O2)C(N(C)C)C1O (stereo not shown) [9-acetyl-18,3"-di-propionyl SF-837 substance]																					antibacterial activity [18]: Not observed
CCC(=O)OC1CC(=O)OC(C)CC=CC=CC(OC(C)=O)C(C)CC(CC=O)C(OC2OC(C)C(OC3CC(C)(OC(=O)CC)C(OC(=O)C(C)C)C(C)O3)C(N(C)C)C2O)C1OC (stereo not shown) [Compound No. 3]		3.12 µg/mL (≈ 3.37 µM)	0.39 µg/mL (≈ 0.421 µM)		0.78 µg/mL (≈ 0.842 µM)	1.9 µg/mL (≈ 2.05 µM)	0.78 µg/mL (≈ 0.842 µM)	0.19 µg/mL (≈ 0.205 µM)	0.09 µg/mL (≈ 0.0972 µM)	0.09 µg/mL (≈ 0.0972 µM)	0.78 µg/mL (≈ 0.842 µM)		1.56 µg/mL (≈ 1.68 µM)	0.19 µg/mL (≈ 0.205 µM)	0.19 µg/mL (≈ 0.205 µM)	0.09 µg/mL (≈ 0.0972 µM)	4/10	10/10	1.56 µg/mL (≈ 1.68 µM)	1.56 µg/mL (≈ 1.68 µM)	MIC ([4]; Staphylococcus, 1200A, 24 h): 1.56 µg/mL (≈ 1.68 µM)
CCC(=O)OC1CC(=O)OC(C)CC=CC=CC(OC(C)=O)C(C)CC(CC=O)C(OC2OC(C)C(OC3CC(C)(OC(C)=O)C(OC(=O)CC)C(C)O3)C(N(C)C)C2O)C1OC (stereo not shown) [Compound No. 2]	1.56 µg/mL (≈ 1.74 µM)	3.12 µg/mL (≈ 3.47 µM)	0.39 µg/mL (≈ 0.434 µM)	1.56 µg/mL (≈ 1.74 µM)	0.78 µg/mL (≈ 0.869 µM)	0.19 µg/mL (≈ 0.212 µM)	0.78 µg/mL (≈ 0.869 µM)	0.19 µg/mL (≈ 0.212 µM)	0.09 µg/mL (≈ 0.1 µM)	0.09 µg/mL (≈ 0.1 µM)	0.78 µg/mL (≈ 0.869 µM)	1.56 µg/mL (≈ 1.74 µM)	0.78 µg/mL (≈ 0.869 µM)	0.19 µg/mL (≈ 0.212 µM)	0.19 µg/mL (≈ 0.212 µM)	0.09 µg/mL (≈ 0.1 µM)	8/10	10/10			
CCC(=O)OC1C=CC=CCC(C)OC(=O)CC(OC(=O)CC)C(OC)C(OC2OC(C)C(OC3CC(C)(OC(=O)CC)C(OC(C)=O)C(C)O3)C(N(C)C)C2O)C(CC=O)CC1C (stereo not shown) [Compound No. 5]	1.56 µg/mL (≈ 1.71 µM)	3.12 µg/mL (≈ 3.42 µM)	0.78 µg/mL (≈ 0.855 µM)	1.56 µg/mL (≈ 1.71 µM)	0.78 µg/mL (≈ 0.855 µM)	0.39 µg/mL (≈ 0.428 µM)	0.78 µg/mL (≈ 0.855 µM)	0.19 µg/mL (≈ 0.208 µM)	0.09 µg/mL (≈ 0.0987 µM)	0.09 µg/mL (≈ 0.0987 µM)	1.56 µg/mL (≈ 1.71 µM)	1.56 µg/mL (≈ 1.71 µM)	0.78 µg/mL (≈ 0.855 µM)	0.19 µg/mL (≈ 0.208 µM)	0.19 µg/mL (≈ 0.208 µM)	0.09 µg/mL (≈ 0.0987 µM)	4/10	8/10			
CCC(=O)OC1CC(=O)OC(C)CC=CC=CC(OC(C)=O)C(C)CC(CC=O)C(OC2OC(C)C(OC3CC(C)(OC(=O)CC)C(OC(=O)CC(C)C)C(C)O3)C(N(C)C)C2O)C1OC (stereo not shown) [Compound No. 4]					0.78 µg/mL (≈ 0.83 µM)	0.39 µg/mL (≈ 0.415 µM)	0.19 µg/mL (≈ 0.202 µM)	0.19 µg/mL (≈ 0.202 µM)	0.39 µg/mL (≈ 0.415 µM)	0.19 µg/mL (≈ 0.202 µM)	0.78 µg/mL (≈ 0.83 µM)		1.56 µg/mL (≈ 1.66 µM)	0.19 µg/mL (≈ 0.202 µM)	0.19 µg/mL (≈ 0.202 µM)	0.09 µg/mL (≈ 0.0957 µM)	0/10	3/10	1.56 µg/mL (≈ 1.66 µM)	1.56 µg/mL (≈ 1.66 µM)	MIC ([2]; Staphylococcus aureus, 24 h): 1.56 µg/mL (≈ 1.66 µM); MIC ([3]; Staphylococcus aureus, 24 h): 1.56 µg/mL (≈ 1.66 µM); MIC ([4]; Staphylococcus, 1200A, 24 h): 1.56 µg/mL (≈ 1.66 µM)
